# US10106542B2, “Substituted 6,7-dihydropyrazolo[1,5-a]pyrazines as negative allosteric modulators of mGluR2 receptors” (Janssen Pharmaceutica NV, priority 2013, dated 2018)
# Target: T1, human mGlu2 receptor (Homo sapiens, UniProt Q14416)
# T1 construct: expressed in transfected cells; host or cells: CHO cells (membrane preparation)
# Experiment: [35S]GTPγS binding assay (mGluR2 negative allosteric modulation)
# Assay type: biochemical
# Conditions: for IC50: membranes from CHO cells transfected with human mGlu2 receptor, glutamate 60 μM, pIC50 = −log IC50 (M), read-out: GTPγS - hmGluR2 anGT pIC50 (converted); for Emax: read-out: GTPγS - hmGluR2 anGT Emax
# Experimental: 1) [^35S]GTPγS binding assay
# The [^35S]GTPγS binding assay is a functional membrane-based assay used to study G-protein coupled receptor (GPCR) function whereby incorporation of a non-hydrolysable form of GTP, [^35S]GTPγS (guanosine 5′-triphosphate, labelled with […] ^35S), is measured. The G-protein a subunit catalyzes the exchange of guanosine 5′-diphosphate (GDP) by guanosine triphosphate (GTP) and on activation of the GPCR by an agonist, [^35S]GTPγS, becomes incorporated and cannot be cleaved to continue the exchange cycle (Harper (1998) Current Protocols in Pharmacology 2.6.1-10, John Wiley & Sons, Inc.). […] Here we describe the use of the [^35S]GTPγS binding assay using membranes from cells transfected with the human mGlu2 receptor and adapted from Schaffhauser et al. (Molecular Pharmacology, 2003, […]) for the detection of the negative allosteric modulation (NAM) properties of the compounds of this invention.
# CHO-cells were cultured to pre-confluence and stimulated with 5 mM butyrate for 24 h. Cells were then collected by scraping in PBS and cell suspension was centrifuged (10 min at 4000 RPM in benchtop centrifuge). Supernatant was discarded and pellet gently resuspended in 50 mM Tris-HCl, pH 7.4 by mixing with an Ultra Turrax homogenizer. The suspension was centrifuged at 12,400 RPM (Sorvall F14S-6x250Y) for 10 minutes and the supernatant discarded. The pellet was homogenized in 5 mM Tris-HCl, pH 7.4 using an Ultra Turrax homogenizer and centrifuged again (13,000 RPM, 20 min, 4° C.). The final pellet was resuspended in 50 mM Tris-HCl, pH 7.4 and stored at −80° C. in appropriate aliquots before use. Protein concentration was determined by the Bradford method (Bio-Rad, USA) with bovine serum albumin as standard.
# Measurement of mGluR2 negative allosteric modulatory activity of test compounds was performed as follows. Test compounds and glutamate were diluted in assay buffer containing 10 mM HEPES acid, 10 mM HEPES salt, pH 7.4, 100 mM NaCl, 3 mM MgCl2 and 10 μM GDP. Human mGlu2 receptor-containing membranes were thawed on ice and diluted in assay buffer supplemented with 18 μg/ml saponin. […] After addition of [^35S]GTPγS (f.c. 0.1 nM), assay mixtures were shaken briefly and further incubated to allow [^35S]GTPγS incorporation on activation (30 minutes, 30° C.). Final assay mixtures contained 7 μg of membrane protein in 10 mM HEPES acid, 10 mM HEPES salt, pH 7.4, 100 mM NaCl, 3 mM MgCl2, 10 μM GDP and 10 μg/ml saponin. Total reaction volume was 200 μl. Reactions were terminated by rapid filtration through Unifilter-96 GF/B plates (Perkin Elmer, Massachusetts, USA) using a 96-well filtermate universal harvester. Filters were washed 6 times with ice-cold 10 mM NaH2PO4/10 mM Na2HPO4, pH 7.4. Filters were then air-dried, and 30 μl of liquid scintillation cocktail (Microscint-O) was added to each well. Membrane-bound radioactivity was counted in a Topcount.
# The concentration-response curves of representative compounds of the present invention were generated using the Lexis software interface (developed at J&J). Data were calculated as % of the control glutamate response, defined as the response that is generated upon addition of an EC80-equivalent concentration of glutamate.
# [1] = relative maximal effect: maximal % inhibition relative to the control glutamate response
# T1 sequence (Q14416 19-872): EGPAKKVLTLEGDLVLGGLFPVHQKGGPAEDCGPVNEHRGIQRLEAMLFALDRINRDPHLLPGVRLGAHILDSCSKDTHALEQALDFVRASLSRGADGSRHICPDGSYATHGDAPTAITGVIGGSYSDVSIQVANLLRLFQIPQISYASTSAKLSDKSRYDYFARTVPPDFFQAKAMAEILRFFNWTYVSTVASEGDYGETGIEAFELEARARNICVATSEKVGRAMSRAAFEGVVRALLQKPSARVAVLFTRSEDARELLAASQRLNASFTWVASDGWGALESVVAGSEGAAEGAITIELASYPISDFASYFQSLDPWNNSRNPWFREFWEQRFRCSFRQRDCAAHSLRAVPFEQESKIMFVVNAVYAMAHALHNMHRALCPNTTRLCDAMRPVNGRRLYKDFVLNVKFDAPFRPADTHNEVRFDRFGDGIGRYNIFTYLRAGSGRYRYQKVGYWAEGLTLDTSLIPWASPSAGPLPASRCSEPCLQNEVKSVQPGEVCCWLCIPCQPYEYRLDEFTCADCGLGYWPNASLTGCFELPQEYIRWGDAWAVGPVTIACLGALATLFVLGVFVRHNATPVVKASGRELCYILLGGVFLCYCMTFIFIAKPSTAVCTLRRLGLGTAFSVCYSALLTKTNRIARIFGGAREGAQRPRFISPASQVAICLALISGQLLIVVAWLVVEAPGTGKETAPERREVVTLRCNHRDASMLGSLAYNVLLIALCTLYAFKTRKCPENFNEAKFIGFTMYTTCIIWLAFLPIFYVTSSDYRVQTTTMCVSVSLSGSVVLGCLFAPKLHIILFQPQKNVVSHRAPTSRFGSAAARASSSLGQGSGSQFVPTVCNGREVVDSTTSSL
SMILES,IC50 [M],Emax [1] [%],GTPγS - hmGluR2 anGT Emax [1] [%]
C[C@H]1CN(c2ccc(C(F)(F)F)c(Cl)c2)C(=O)c2c(-c3ccnc(N4CCC4)c3)cnn21 [compound 96],1.23e-09,108,
Cc1cc(-c2cnn3c2C(=O)N(c2ccc4c(c2)OCCO4)C[C@@H]3C)ccn1 [compound 42],3.09e-06,102,
CCN(C)c1cc(-c2cnn3c2C(=O)N(c2ccc(C(F)(F)F)cc2)C[C@@H]3C)ccn1 [compound 253],6.17e-09,111,
Cc1cc(-c2cnn3c2C(=O)N(c2cccc(OC(F)(F)F)c2)C[C@@H]3C)ccn1 [compound 58],2.19e-08,107,
C[C@H]1CN(c2ccc(Cl)c(Cl)c2)C(=O)c2c(-c3ccnc(C4CC4)c3)cnn21 [compound 122],3.72e-09,108,
Cc1cc(-c2cnn3c2C(=O)N(c2ccc(F)cc2)C[C@@H]3C)ccn1 [compound 28],2.4e-07,105,
"Cc1cc(-c2cnn3c2C(=O)N(c2ccc(C(F)(F)F)cc2)CC3C(F)(F)F)ccn1 (stereo not shown) [compound 238, 3-(2-Methyl-4-pyridyl)-7-(trifluoromethyl)-5-[4-(trifluoromethyl)phenyl]-6,7-dihydropyrazolo[1,5-a]pyrazin-4-one]",2.14e-06,103,
COc1nc(N2C[C@H](C)n3ncc(-c4ccnc(N(C)C)c4)c3C2=O)ccc1C(F)(F)F [compound 250],3.98e-09,120,
CCCNc1cc(-c2cnn3c2C(=O)N(c2ccc(C(F)(F)F)cc2)C[C@@H]3C)ccn1 [compound 259],1.78e-08,105,
"Cc1cc(-c2cnn3c2C(=O)N(c2ccc(Cl)c(Cl)c2)C[C@@H]3C)cc[n+]1[O-] [compound 170, (7S)-5-(3,4-dichlorophenyl)-7-methyl-3-(2-methyl-1-oxido-pyridin-1-ium-4-yl)-6,7-dihydropyrazolo[1,5-a]pyrazin-4-one]",7.24e-08,107,
Cc1cc(-c2cnn3c2C(=O)N(c2ccc(F)c(F)c2)C[C@@H]3C)ccn1 [compound 25],1.45e-07,103,
"CC(=O)N1CCN(c2cc(-c3cnn4c3C(=O)N(c3ccc(C(F)(F)F)cc3)C[C@@H]4C)ccn2)CC1 [compound 106, (7S)-3-[2-(4-Acetylpiperazin-1-yl)-4-pyridyl]-7-methyl-5-[4-(trifluoromethyl)phenyl]-6,7-dihydropyrazolo[1,5-a]pyrazin-4-one]",6.03e-07,109,
C[C@H]1CN(c2ccc(C(F)(F)F)cc2)C(=O)c2c(-c3ccnc(N4CC(F)C4)c3)cnn21 [compound 94],5.5e-08,108,
Cc1cc(-c2cnn3c2C(=O)N(c2ccc(OC(C)C(F)(F)F)cc2)C[C@@H]3C)ccn1 (stereo partly shown) [compound 165],1.95e-08,102,
COc1cc(Cl)ccc1N1C[C@H](C)n2ncc(-c3ccnc(C)c3)c2C1=O [compound 161],1.55e-05,76,
COc1nc(N2C[C@H](C)n3ncc(-c4ccnc(C)c4)c3C2=O)ccc1Cl [compound 206],1.78e-08,111,
C[C@H]1CN(c2ccc(C(F)(F)F)cn2)C(=O)c2c(-c3ccncc3)cnn21 [compound 190],2.09e-07,105,
CCOc1ccc(N2C[C@H](C)n3ncc(-c4ccnc(C)c4)c3C2=O)cc1Cl [compound 17],4.79e-08,104,

# Now from value to compound:
IC50 [M],Emax [1] [%],GTPγS - hmGluR2 anGT Emax [1] [%],SMILES
5.5e-09,111,,C[C@H]1CN(c2ccc(C(F)(F)F)c(Cl)c2)C(=O)c2c(-c3ccnc(CF)c3)cnn21 [compound 265]
1.91e-08,103,,Cc1cc(-c2cnn3c2C(=O)N(c2cc(C)c(C(F)(F)F)cn2)C[C@@H]3C)ccn1 [compound 193]
3.72e-06,92,,Cc1cc(-c2cnn3c2C(=O)N(c2ccc(C(F)(F)F)cn2)CC3)ccn1 [compound 211]
1.62e-05,,75,"COCC1CN(c2ccc(C(F)(F)F)cc2)C(=O)c2c(-c3ccnc(C)c3)cnn21 (single isomer, unassigned) [compound 121]"
2.75e-07,105,,"CNc1cc(-c2cnn3c2C(=O)N(c2ccc(Cl)c(Cl)c2)CC3CF)ccn1 (single isomer, unassigned) [compound 184]"
4.07e-06,92,,CCOc1ccc(Cl)c(N2C[C@H](C)n3ncc(-c4ccnc(C)c4)c3C2=O)n1 [compound 195]
6.76e-08,105,,CC(C)Oc1cc(-c2cnn3c2C(=O)N(c2ccc(C(F)(F)F)cc2)C[C@@H]3C)ccn1 [compound 138]
7.41e-09,106,,"Cc1cc(-c2cnn3c2C(=O)N(c2ccc(C(F)(F)F)c(C)n2)C[C@@H]3C)ccn1 [compound 192, (7S)-7-Methyl-3-(2-methyl-4-pyridyl)-5-[6-methyl-5-(trifluoromethyl)-2-pyridyl]-6,7-dihydropyrazolo[1,5-a]pyrazin-4-one]"
6.76e-09,105,,Cc1cc(-c2cnn3c2C(=O)N(c2cc(Cl)c(Cl)cn2)C[C@@H]3C)ccn1 [compound 203]
7.59e-09,109,,C[C@H]1CN(c2ccc(Cl)c(Cl)c2)C(=O)c2c(-c3ccnc(CF)c3)cnn21 [compound 117]
6.31e-08,104,,"Cc1cc(-c2cnn3c2C(=O)N(c2ccc(F)c(C(F)(F)F)c2)C[C@@H]3C)ccn1 [compound 67, (7S)-5-[4-Fluoro-3-(trifluoromethyl)phenyl]-7-methyl-3-(2-methyl-4-pyridyl)-6,7-dihydropyrazolo[1,5-a]pyrazin-4-one]"
4.37e-09,106,,C[C@H]1CN(c2ccc(C(F)(F)F)cc2)C(=O)c2c(-c3ccnc(C4CC4)c3)cnn21 [compound 173]
1.38e-07,107,,Cc1cc(-c2cnn3c2C(=O)N(c2ccc(C(F)(F)F)cn2)C[C@@H]3C)cc(C)n1 [compound 194]
7.76e-09,100,,Cc1cc(-c2cnn3c2C(=O)N(c2ccc(C(F)(F)F)c(OCCF)c2)C[C@@H]3C)ccn1 [compound 48]
6.46e-09,111,,Cc1cc(-c2cnn3c2C(=O)N(c2ccc(C(F)(F)F)c(CF)c2)C[C@@H]3C)ccn1 [compound 98]
9.12e-08,104,,Cc1cc(-c2cnn3c2C(=O)N(c2cc(Cl)c(C)cn2)C[C@@H]3C)ccn1 [compound 198]
7.08e-09,108,,"Cc1cc(-c2cnn3c2C(=O)N(c2ccc(Cl)c(Cl)c2)CC3CF)ccn1 (single isomer, unassigned) [compound 115]"
1.82e-08,105,,CNc1cc(-c2cnn3c2C(=O)N(c2ccc(Cl)c(Cl)c2)CC3CF)ccn1 (stereo not shown) [compound 93]
1.1e-08,103,,Cc1cc(-c2cnn3c2C(=O)N(c2ccc(Cl)c(OC(F)F)c2)C[C@@H]3C)ccn1 [compound 163]
2.4e-08,107,,CNc1cc(-c2cnn3c2C(=O)N(c2ccc(Cl)cc2)C[C@@H]3C)ccn1 [compound 178]
3.55e-09,105,,Cc1cc(N2C[C@H](C)n3ncc(-c4ccnc(N5CCC5)c4)c3C2=O)ccc1C(F)(F)F [compound 260]
8.71e-06,80,,Cc1cc(-c2cnn3c2C(=O)N(c2ccc(Cl)cc2Cl)CC3)ccn1 [compound 244]
2.95e-09,107,,C[C@H]1CN(c2ccc(C(F)(F)F)c(Cl)c2)C(=O)c2c(-c3ccnc(N4CC(F)C4)c3)cnn21 [compound 92]
